{"source": "patent US20090029970A1", "about": "“PAIN REMEDY CONTAINING ROCK INHIBITOR” (Astellas Pharma Inc., priority 2005, published 2009)", "key": {"[1]": {"test_system": "rat MIA-induced osteoarthritis model", "test": "Analgesic test by assessment of hindlimb weight distribution in monoiodoacetate (MIA)-induced osteoarthritis model", "format": "in vivo", "conditions": "for ED50: Rattus norvegicus, read-out: Difference in weight between the right and left hindlimbs of rats: ED50", "procedure": "This disease model was prepared according to the description in Toxicol Pathol 31(6), 619-624 (2003). Female SD rats (6-7 weeks old, Charles River Laboratories Japan, Inc.) were anesthetized with halothane (Takeda Pharmaceutical Company, Limited) and given a single intra-articular injection of 1 mg of monosodium iodoacetate (MIA; Sigma, St. Louis) through the infrapatellar ligament of the right knee. MIA was dissolved with physiological saline and administered in a volume of 50 μL using a 27-gauge, 0.5-inch needle. Three weeks after the injection of MIA (establishment of pathology of osteoarthritis), single oral administration of a ROCK inhibitor or diclofenac was given and the weights of both hindlimbs of the rats were determined using an incapacitance tester (Linton Instrumentation, Norfork, UK) 2 hours after administration of the compounds to obtain ED50 values (Table 1)."}, "[2]": {"test_system": "bradykinin-induced joint pain model", "test": "Pain alleviation effect on bradykinin-induced joint pain model", "format": "in vivo, rat", "conditions": "for pain score (0-4): 30 min before bradykinin, decreased from 2.6", "procedure": "Preparation of the Joint Pain Model and Evaluation of a Level of Pain were conducted based on the description in Folia pharmacol. japon. 92, 17-27 (1988). Female SD rats (6-7 weeks old, Charles River Laboratories Japan, Inc.) were anesthetized with halothane (Takeda Pharmaceutical Company, Limited) and given a single intra-articular injection of a saline solution of Wf536 or Compound 2 into the knee joint cavity of the hindlimb using a 27-gauge, 0.5-inch needle at a dose of 0.03 μg/site, 0.3 μg/site or 3 μg/site. Thirty minutes after administration of the drug, a physiological saline solution of bradykinin was injected into the knee joint cavity of the hindlimb (3 μM/site/50 μl), then the response to pain of the rat after administration of bradykinin was observed. The level of pain was scored as five grade point (0-4) as follows: 0: no lameness to lameness for 10 seconds; 1: lameness for 10 to 30 seconds; 2: lift of the limb within 10 seconds or lameness for 31 or more seconds; 3: three-legged gait within 10 seconds followed by lameness; and 4: three-legged gait for 10 or more seconds followed by lameness. About 10 rat models were used in each experimental group. It was confirmed that administration of bradykinin leads to response to pain scored as about 3."}, "[3]": {"test_system": "MIA-induced osteoarthritis model", "test": "Cartilage damage score of the distal end of the tibia in MIA-induced osteoarthritis model", "format": "in vivo, rat", "conditions": "for score of morphological change of the distal end of the tibia (0-4): three weeks after injection, decreased from 3", "procedure": "This disease model was prepared according to the description in Toxicol Pathol 31 (6), 619-624 (2003). Female SD rats (6-7 weeks old, Charles River Laboratories Japan, Inc.) were anesthetized with halothane (Takeda Pharmaceutical Company, Limited) and given a single intra-articular injection of 1 mg of monosodium iodoacetate (MIA; Sigma, St. Louis) through the intrapatellar ligament of the right knee. MIA was dissolved with physiological saline and administered in a volume of 50 μL using a 27-gauge, 0.5-inch needle. Three weeks after the injection, a tibia was isolated and morphological change of the distal end of the tibia was scored (0-4; FIG. 1). About 8 rats were used for each group. Three weeks after the injection of MIA, cartilage damage of about score 3 was confirmed. Wf536 or Compound 2 was injected intra-articularly at a concentration of 0.03 μg/site, 0.3 μg/site or 3 μg/site 2 times a week (every 2 to 3 days) from the day of administration of MIA. […] 0: no damage; 1: damage on the surface of cartilage; 2: cartilage degradation; 3: cartilage degradation and subchondral bone damage; 4: cartilage degradation, subchondral bone damage and spur formation."}, "[4]": {"conditions": "female SD rats, single oral administration three weeks after MIA injection, measured 2 hours after administration"}}}
{"smiles": "CC(C)(N)c1ccc(-c2ccc3[nH]ncc3c2)cc1.Cl.Cl", "note": "[Compound 3, 2-[4-(1H-indazol-5-yl)phenyl]-2-propanamine dihydrochloride]", "values": [{"measurement": "ED50", "setting": "[1]; [4]", "result": "< 10", "unit": "mg/kg"}]}
{"smiles": "C[C@@H](N)c1ccc(C(=O)Nc2ccncc2)cc1.Cl", "note": "[Wf536, 4-[(1R)-1-aminoethyl]-N-(4-piridyl)benzamide monohydrochloride]", "values": [{"measurement": "Difference in weight between the right and left hindlimbs of rats: ED50", "setting": "[1]; [4]", "result": "<30", "unit": "mg/kg"}, {"measurement": "response to pain (in words)", "setting": "[2]; intra-articular 0.03, 0.3 or 3 μg/site", "result": "dose-dependently improved the response to pain"}, {"measurement": "pain score (0-4)", "setting": "[2]; single intra-articular injection 3 μg/site", "result": 1.2}, {"measurement": "score of morphological change of the distal end of the tibia (0-4)", "setting": "[3]; intra-articular 3 μg/site 2 times a week from the day of MIA", "result": 2.2}, {"measurement": "MIA-induced cartilage damage (in words)", "setting": "[3]; intra-articular 0.03, 0.3 or 3 μg/site 2 times a week, three weeks", "result": "dose-dependently improved the MIA-induced cartilage damage"}]}
{"smiles": "NC(=O)c1cc(Cl)c(N[C@H]2CC[C@H](N)CC2)cc1F", "note": "[Compound 2, 4-[(trans-4-aminocyclohexyl)amino]-5-chloro-2-fluorobenzamide]", "values": [{"measurement": "ED50", "setting": "[1]; [4]", "result": "< 10", "unit": "mg/kg"}, {"measurement": "pain score (0-4)", "setting": "[2]; single intra-articular injection 0.3 μg/site", "result": 1.1}, {"measurement": "score of morphological change of the distal end of the tibia (0-4)", "setting": "[3]; intra-articular 0.3 μg/site 2 times a week from the day of MIA", "result": 2.3}]}
{"smiles": "NC(=O)c1cc(F)c(N[C@H]2CC[C@H](N)CC2)cc1F", "note": "[Compound 1, 4-[(trans-4-aminocyclohexyl)amino]-2,5-difluorobenzamide]", "values": [{"measurement": "ED50", "setting": "[1]; [4]", "result": "< 10", "unit": "mg/kg"}]}
{"smiles": "O=C(O)Cc1ccccc1Nc1c(Cl)cccc1Cl", "note": "[Diclofenac]", "values": [{"measurement": "ED50", "setting": "[1]; [4]", "result": "> 30", "unit": "mg/kg"}, {"measurement": "efficacy on pain (in words)", "setting": "[1]; single dose given after establishment of the disease in the rat MIA-induced osteoarthritis model", "result": "ineffective"}]}
{"smiles": "Cl.O=S(=O)(c1cccc2cnccc12)N1CCCNCC1", "note": "[Fasudil, 5-(hexahydro-1H-1,4-diazepin-1-ylsulfonyl)isoquinoline hydrochloride]", "values": [{"measurement": "ED50", "setting": "[1]; [4]", "result": "< 10", "unit": "mg/kg"}]}
